Patent publication US20020072485A1, “Prophylactic use of N-methyl-D-aspartate (NMDA) antagonists” (priority 2000, published 2002)

Columns and labels:
[1] = test system: static and dynamic allodynia in rats (paw incision model); assay: Paw incision model for surgical pain, pre-surgery administration; type: in vivo, rat; details: for PWL (paw withdrawal latency) compared to vehicle / PWT (paw withdrawal threshold) compared to vehicle: 72 hours, pre-surgical 10 and 30 mg/kg CP-101,606, pregabalin 30 mg/kg s.c.
Excerpt: (§1) Basically, in this animal model, an incision is made in the hind paw of the rats, which induces a reproducible and quantifiable mechanical hyperalgesia in the rats lasting several days. Rats are anesthetized, and the plantar surface of the right hind paw of each rat is incised through the skin and fascia. The wound is then closed, for example with sutures, and allowed to heal. The rats are placed into wire mesh bottom cages, allowing access to the underside of their paws. After habituation, tactile allodynia (or “static allodynia”) can be evaluated by touching the right hind paw plantar surface with von Frey hairs in ascending order of force (measured in grams) until a paw-withdrawal response (paw withdrawal threshold or “PWT”) is elicited. Dynamic allodynia can be evaluated by stoking the plantar surface of the right hind paw and measuring (in seconds) the amount of time it takes for a rat to withdraw its paw (paw withdrawal latency or “PWL”).
In the pre-surgery administration assay, a PWT and PWL baseline is measured prior to drug administration and incision. The rats are then given drug (CP-101,606, at separate doses of 3, 10 or 30 mg/kg s.c.) or are given pregabalin (30 mg/kg s.c., as a positive control)), or vehicle (s.c.). The right hind paw each rat is then incised as described above. Measurements are then taken periodically, as described above.

[2] = test system: static and dynamic allodynia in rats (paw incision model); assay: Paw incision model for surgical pain, post-surgery administration; type: in vivo, rat
Excerpt: as §1
CP-101,606 was also tested post-surgically using the paw incision model, basically as described above. However, in this assay, rats are administered CP-101,606 (3, 10, or 30 mg/kg, s.c.), pregabalin (30 mg/kg, s.c.), or vehicle (s.c.) post-incision. A baseline is measured before incision and after incision, prior to drug. […] CP-101,606 produced a full reversal of static allodynia and a partial (approximately 40%) reversal of the dynamic subtype.

[3] = target: NMDA receptors comprised of NR1/NR2B subunits (Homo sapiens, UniProt Q05586+Q13224); details: selectivity between NMDA receptor subtypes; cited from earlier work
Sequence of NMDA receptors comprised of NR1/NR2B subunits (Q13224 27-1484, other chains not shown): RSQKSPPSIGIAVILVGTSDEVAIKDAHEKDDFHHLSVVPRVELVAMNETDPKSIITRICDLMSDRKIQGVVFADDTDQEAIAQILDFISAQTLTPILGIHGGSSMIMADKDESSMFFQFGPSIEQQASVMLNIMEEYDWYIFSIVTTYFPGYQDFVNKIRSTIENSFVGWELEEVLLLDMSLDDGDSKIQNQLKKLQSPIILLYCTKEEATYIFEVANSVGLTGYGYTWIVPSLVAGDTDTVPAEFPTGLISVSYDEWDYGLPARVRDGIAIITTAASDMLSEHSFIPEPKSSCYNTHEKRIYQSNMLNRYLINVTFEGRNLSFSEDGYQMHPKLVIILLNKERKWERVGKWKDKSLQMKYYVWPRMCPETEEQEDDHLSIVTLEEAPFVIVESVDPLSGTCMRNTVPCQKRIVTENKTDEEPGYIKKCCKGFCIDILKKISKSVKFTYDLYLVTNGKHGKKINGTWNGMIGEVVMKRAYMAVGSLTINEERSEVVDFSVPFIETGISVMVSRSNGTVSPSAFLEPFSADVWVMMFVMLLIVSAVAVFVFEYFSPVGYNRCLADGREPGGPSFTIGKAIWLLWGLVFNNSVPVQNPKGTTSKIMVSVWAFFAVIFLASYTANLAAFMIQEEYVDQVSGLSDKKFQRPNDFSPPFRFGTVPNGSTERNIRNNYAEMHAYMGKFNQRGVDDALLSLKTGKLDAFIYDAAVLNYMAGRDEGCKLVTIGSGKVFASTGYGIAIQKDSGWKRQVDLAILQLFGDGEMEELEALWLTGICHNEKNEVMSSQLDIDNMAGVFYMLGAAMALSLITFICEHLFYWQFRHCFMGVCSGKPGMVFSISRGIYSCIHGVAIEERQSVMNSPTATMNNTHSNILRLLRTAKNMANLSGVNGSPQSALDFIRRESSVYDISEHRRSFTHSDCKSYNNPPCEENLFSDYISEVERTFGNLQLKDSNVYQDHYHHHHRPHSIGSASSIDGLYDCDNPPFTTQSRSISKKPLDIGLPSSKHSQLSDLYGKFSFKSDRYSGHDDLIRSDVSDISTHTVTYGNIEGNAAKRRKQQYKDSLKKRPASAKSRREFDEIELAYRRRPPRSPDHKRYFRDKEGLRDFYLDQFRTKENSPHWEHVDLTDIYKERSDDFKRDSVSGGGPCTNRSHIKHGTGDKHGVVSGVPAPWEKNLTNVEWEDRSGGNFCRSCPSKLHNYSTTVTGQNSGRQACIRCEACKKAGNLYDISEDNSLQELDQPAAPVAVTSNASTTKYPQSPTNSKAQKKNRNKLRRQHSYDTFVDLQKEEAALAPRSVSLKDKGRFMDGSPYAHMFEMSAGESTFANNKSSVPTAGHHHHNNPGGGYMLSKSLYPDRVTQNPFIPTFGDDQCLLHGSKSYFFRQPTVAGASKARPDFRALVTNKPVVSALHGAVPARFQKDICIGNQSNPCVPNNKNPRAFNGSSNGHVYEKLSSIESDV

[4] = test system: animal models of pain perception; details: literature (Bernardi 1996; Taniguchi 1997); cited from earlier work
[5] = pre-surgery administration, 30 mg/kg s.c.
[6] = pre-surgery administration, s.c.
[7] = post-incision administration, 30 mg/kg s.c.
[8] = post-incision administration, s.c.

C[C@@H]([C@@H](O)c1ccc(O)cc1)N1CCC(O)(c2ccccc2)CC1 [CP-101,606, (+)-(1S, 2S)-1-(4-hydroxy-phenyl)-2-(4-hydroxy-4-phenylpiperidino)-1-propanol]
PWL (paw withdrawal latency) compared to vehicle [1]: longer
PWT (paw withdrawal threshold) compared to vehicle [1]: higher
duration of antiallodynic action ([1]; following pre-surgical administration): at least 48 hours
latest time at which a preventive effect was seen ([1]; post surgery, pre-surgical administration): 72 h
time of peak effect, dynamic allodynia [1, 5]: two
time of peak effect, static allodynia [1, 5]: two
effect on static and dynamic subtypes of allodynia ([1]; pre-surgery administration, 3, 10 or 30 mg/kg s.c., rats): dose-dependently blocked both static and dynamic subtypes of allodynia
blockade of dynamic allodynia [1, 6]: near full blockade
blockade of static allodynia [1, 6]: full blockade
MED (minimum effective dosage), dynamic allodynia ([1]; pre-surgery administration, s.c., PWL): 10 mg/kg
MED (minimum effective dosage), static allodynia ([1]; pre-surgery administration, s.c., PWT (von Frey hairs)): 10 mg/kg
duration of effect, dynamic allodynia [2, 7]: two
duration of effect, static allodynia [2, 7]: three
time of peak effect, dynamic allodynia [2, 7]: two
effect on static and dynamic subtypes of allodynia ([2]; post-incision administration, 3, 10 or 30 mg/kg s.c., rats): dose-dependently diminished both static and dynamic subtypes of allodynia
MED, dynamic allodynia [2, 8]: 30 mg/kg
MED, static allodynia [2, 8]: 10 mg/kg
reversal of static allodynia [2, 8]: full reversal
reversal of dynamic allodynia ([2]; post-incision administration, s.c., partial reversal): approximately 40%

CC(C)C[C@H](CN)CC(=O)O [pregabalin, reference compound]
PWL (paw withdrawal latency) compared to vehicle [1]: longer
PWT (paw withdrawal threshold) compared to vehicle [1]: higher

CC(C(O)c1ccc(O)cc1)N1CCC(Cc2ccccc2)CC1 (stereo not drawn) [Ifenprodil, ifenprodil]
blockade of ion current, NR1/NR2B compared to NR1/NR2A, NR2C, or NR2D subunits [3]: more potent and efficacious
analgesic activity [4]: significant analgesic activity

Oc1ccc2c(c1)OC[C@@H](N1CCC(O)(c3ccc(F)cc3)CC1)[C@H]2O (relative stereo)
melting point: 159 to 160 °C
